“And” between values parts separate entries of the source, which are not always exact repeats. Equal values may be shown once.
Columns and labels:
hOAT3 = biological target: T1, hOAT3 (Homo sapiens, UniProt Q8TCC7); assay: Inhibition of 6-CF uptake in HEK-OAT3 cells (screening at 5 μg/ml and concentration-dependent inhibition); format: cell-based; set-up: Invitrogen (Flp-In system, cells); 6-CF uptake OAT3, Figure 2 raw data (single replicates) / OAT3-mediated 6-CF uptake (Inhibitory effects of butanol extracts on OAT-mediated 6-CF), raw replicate values / OAT3-mediated 6-CF uptake (Inhibitory effects of aqueous extracts on OAT-mediated 6-CF), raw replicate values: unit not given here
T1 sequence (Q8TCC7 1-542): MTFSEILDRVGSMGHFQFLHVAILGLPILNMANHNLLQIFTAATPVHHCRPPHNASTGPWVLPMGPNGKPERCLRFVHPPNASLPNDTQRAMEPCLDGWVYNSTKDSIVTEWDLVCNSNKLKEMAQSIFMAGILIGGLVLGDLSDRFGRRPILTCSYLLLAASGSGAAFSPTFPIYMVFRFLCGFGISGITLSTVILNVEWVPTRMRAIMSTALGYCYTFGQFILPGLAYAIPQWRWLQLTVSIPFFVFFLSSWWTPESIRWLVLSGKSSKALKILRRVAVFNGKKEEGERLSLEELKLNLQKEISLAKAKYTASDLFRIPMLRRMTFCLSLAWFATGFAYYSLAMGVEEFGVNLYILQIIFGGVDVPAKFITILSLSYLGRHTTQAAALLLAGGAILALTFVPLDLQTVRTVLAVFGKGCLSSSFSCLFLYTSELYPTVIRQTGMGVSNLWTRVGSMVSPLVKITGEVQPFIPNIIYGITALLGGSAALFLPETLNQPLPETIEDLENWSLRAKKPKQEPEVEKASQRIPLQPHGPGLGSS
Protocol: The stock solutions of plant extracts were prepared using DMSO with a final concentration of 1 mg/ml. The initial concentration for each extract was set at 5 μg∕ml. Every well contained the same concentration of DMSO (0.5%) to eliminate the potential effect of solvent. […] Before the initial screening, the reproducibility of uptake experiments was evaluated. […] Due to the large number of samples, for the initial screening study, each uptake experimental sample was measured in triplicates in the same assay.
After the uptake was terminated at 4 min and 10 min for OAT1 and OAT3 respectively, intracellular fluorescence was determined as above.

[1] = Pharmacokinetics of furosemide in rats with and without Juncus effusus extract; format: in vivo; details: FS 10 mg/kg i.v. alone
Protocol: Male Sprague–Dawley (SD) rats (200–220 g) were obtained from Vital River Laboratories (Beijing, China), and housed in the certified animal facility at the Institute of Radiation Medicine of the Chinese Academy of Medical Sciences (CAMS, Tianjin, China). […] Rats were acclimated for 1 week in a temperature controlled room (23 ± 2 °C), with a relative humidity of 55 ± 10%. Food and water were supplied ad libitum. The rats were fasted for 12-h before the experiment. […] For the control group, a same volume of 40% PEG400 was administered to the rats at 5 min before the injection of a same volume of saline. […] Plasma sample (250 μl) was pipetted into a microcentrifuge tube, and 1 ml acetonitrile (containing 40 μg∕ml warfarin as internal standard) was added. […] The supernatant was dried in vacuum and then was reconstituted in 200 μL mobile phase for HPLC injection.
The analytical column was a ZORBAX SB-C18 columm (4.6 × 150 mm, 5 µm; Agilent, Santa Clara, CA, USA) with a precolumn. The mobile phase was a mixture of acetonitrile and distilled water (69:31, v/v) with 0.3 M sodium acetate buffer (pH 5.0). The column temperature is 30 °C with a flow rate of 1 ml/min. The injection volume was 10 μl, and the detection wavelength was set at 280 nm.
For the pharmacokinetics, five rats per group were used. […] Data were analyzed with two-tailed unpaired Student’s t-test. […]

Structure (SMILES)	6-CF fluorescence of cells (fluorescence images) (hOAT3; HEK-OAT3, co-incubation with probenecid 30 μM)	OAT3-mediated 6-CF uptake (Inhibitory effects of aqueous extracts on OAT-mediated 6-CF), raw replicate values (hOAT3; aqueous extracts, screening at 5 μg/ml, HEK-OAT3 cells, three replicate columns, Control about 100, Prob = positive control)	OAT3-mediated 6-CF uptake (Inhibitory effects of butanol extracts on OAT-mediated 6-CF), raw replicate values (hOAT3; butanol extracts, screening at 5 μg/ml, HEK-OAT3 cells, three replicate columns, Control about 100, Prob = positive control)	6-CF uptake OAT3, Figure 2 raw data (single replicates) (hOAT3; probenecid 30 μM positive control, 6-CF 4 μM, 10 min, HEK-OAT3)	Clobs of FS [1] [L/min/kg × 10^−3]	V z_obs of FS [1] [L/kg ×10^−3]
CCCN(CCC)S(=O)(=O)c1ccc(C(=O)O)cc1 [probenecid, Probenecid]	almost completely abolished	2.375 and 2.144 and 0.9311	2.375 and 2.144 and 0.9311	2.375 and 2.144 and 0.9311		
NS(=O)(=O)c1cc(C(=O)O)c(NCc2ccco2)cc1Cl [FS, furosemide]					1.0 ± 1.0	146.9 ± 12.1
